Results: US20120269799A1, “DIAGNOSTIC AND TREATMENT METHODS USING A LIGAND LIBRARY” (priority 2011, published 2012)

Test system: anti-DNP antibody
Experiment: Competition between free ethanolamine-DNP and DNP on a plate
Assay type: binding
Conditions: 1,000 ug/mL sera concentration
Description: The Mean fluorescence intensity (MFI) separation was greatest at the higher dilution of 1,000 ug/mL sera.

competition with the binding of DNP (on a plate) to anti-DNP antibody: direct competition
SMILES: O=[N+]([O-])c1ccc(NCCO)c([N+](=O)[O-])c1 [ethanolamine-DNP]
